Experimental data from ChEMBL document CHEMBL1909046, “DrugMatrix in vitro pharmacology data”.

What was measured:
[1] = target: T1, Cytochrome P450 1A2 (Homo sapiens, UniProt P05177); details: bti-tn-5b1-4; note: in other assays of this panel Not Active means under 50% inhibition at 10 µM
T1 sequence (P05177 whole entry): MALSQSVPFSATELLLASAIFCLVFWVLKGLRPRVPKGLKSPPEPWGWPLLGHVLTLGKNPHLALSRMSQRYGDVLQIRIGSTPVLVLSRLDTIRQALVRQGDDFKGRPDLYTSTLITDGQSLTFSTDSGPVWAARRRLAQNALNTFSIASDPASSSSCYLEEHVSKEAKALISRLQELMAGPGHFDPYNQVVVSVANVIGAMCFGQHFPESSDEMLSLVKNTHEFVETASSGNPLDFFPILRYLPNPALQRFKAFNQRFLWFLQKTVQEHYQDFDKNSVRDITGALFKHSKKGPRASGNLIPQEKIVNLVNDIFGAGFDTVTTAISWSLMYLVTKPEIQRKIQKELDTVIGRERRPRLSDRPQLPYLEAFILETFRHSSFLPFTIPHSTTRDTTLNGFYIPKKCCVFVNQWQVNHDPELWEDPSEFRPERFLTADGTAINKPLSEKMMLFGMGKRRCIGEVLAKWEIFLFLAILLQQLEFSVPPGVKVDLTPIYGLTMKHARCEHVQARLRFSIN

[2] = target: T2, D(4) dopamine receptor (Homo sapiens, UniProt P21917); test: DRUGMATRIX: Dopamine D4.2 radioligand binding (ligand: [3H] Spiperone); type: cell membranes, CHO-K1, Membrane; details: Not Active = under 50% inhibition at 10 µM
T2 sequence (P21917 whole entry): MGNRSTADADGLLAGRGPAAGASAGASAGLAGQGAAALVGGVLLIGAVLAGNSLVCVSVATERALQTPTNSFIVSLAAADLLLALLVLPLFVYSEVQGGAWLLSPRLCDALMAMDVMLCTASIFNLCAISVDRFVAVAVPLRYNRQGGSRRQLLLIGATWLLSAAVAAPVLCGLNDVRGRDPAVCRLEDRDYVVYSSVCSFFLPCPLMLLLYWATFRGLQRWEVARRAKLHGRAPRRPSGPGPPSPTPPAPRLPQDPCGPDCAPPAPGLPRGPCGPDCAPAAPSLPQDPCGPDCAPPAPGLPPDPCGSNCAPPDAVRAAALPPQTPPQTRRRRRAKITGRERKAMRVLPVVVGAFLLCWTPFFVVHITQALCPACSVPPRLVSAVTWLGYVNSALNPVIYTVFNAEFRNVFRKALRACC

[3] = DRUGMATRIX: Glutamate, NMDA, Agonism radioligand binding (ligand: [3H] CGP-39653); type: cell membranes, Rattus norvegicus, Wistar, Cerebral cortex, Membrane; details: Not Active = under 50% inhibition at 10 µM
[4] = target: Epidermal growth factor receptor (Homo sapiens, UniProt P00533); test: DRUGMATRIX: Protein Tyrosine Kinase, EGF Receptor enzyme inhibition (substrate: Poly(Glu:Tyr)); type: cell-based, Insect cells; details: Not Active = under 50% inhibition at 10 µM
[5] = target: T3, Type-2 angiotensin II receptor (Homo sapiens, UniProt P50052); type: cell-based; details: cho-k1; note: in other assays of this panel Not Active means under 50% inhibition at 10 µM
T3 sequence (P50052 whole entry): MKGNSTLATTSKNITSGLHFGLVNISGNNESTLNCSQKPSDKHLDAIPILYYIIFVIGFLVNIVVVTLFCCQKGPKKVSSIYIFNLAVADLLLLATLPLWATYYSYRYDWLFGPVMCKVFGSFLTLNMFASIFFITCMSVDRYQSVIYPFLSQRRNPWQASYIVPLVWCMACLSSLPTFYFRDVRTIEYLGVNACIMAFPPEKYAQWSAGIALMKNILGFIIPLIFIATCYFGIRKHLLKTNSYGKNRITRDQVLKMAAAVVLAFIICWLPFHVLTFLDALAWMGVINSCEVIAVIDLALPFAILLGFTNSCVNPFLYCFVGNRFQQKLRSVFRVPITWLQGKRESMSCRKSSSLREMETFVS

[6] = target: T4, Muscarinic acetylcholine receptor M2 (Homo sapiens, UniProt P08172); type: cell membranes, CHO-K1, Membrane; details: cho-k1; note: in other assays of this panel Not Active means under 50% inhibition at 10 µM
T4 sequence (P08172 whole entry): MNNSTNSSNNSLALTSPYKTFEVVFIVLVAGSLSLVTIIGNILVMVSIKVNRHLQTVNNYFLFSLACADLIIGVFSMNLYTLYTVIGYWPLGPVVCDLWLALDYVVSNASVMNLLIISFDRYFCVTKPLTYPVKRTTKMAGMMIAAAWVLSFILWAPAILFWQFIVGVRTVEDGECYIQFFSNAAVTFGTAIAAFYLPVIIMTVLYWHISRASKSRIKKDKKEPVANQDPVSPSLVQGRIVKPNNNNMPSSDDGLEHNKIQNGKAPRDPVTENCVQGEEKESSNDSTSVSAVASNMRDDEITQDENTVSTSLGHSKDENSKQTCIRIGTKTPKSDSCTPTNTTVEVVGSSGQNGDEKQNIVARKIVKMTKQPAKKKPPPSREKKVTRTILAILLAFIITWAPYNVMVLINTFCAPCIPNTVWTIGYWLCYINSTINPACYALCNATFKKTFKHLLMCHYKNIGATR

[7] = DRUGMATRIX: GABAA, Flunitrazepam, Central radioligand binding (ligand: [3H] Flunitrazepam); type: cell membranes, Rattus norvegicus, Wistar, Brain, Membrane; details: Not Active = under 50% inhibition at 10 µM
[8] = target: Mu-type opioid receptor (Homo sapiens, UniProt P35372); test: DRUGMATRIX: Opiate mu (OP3, MOP) radioligand binding (ligand: [3H] Diprenorphine); type: cell membranes, CHO-K1, Membrane; details: Not Active = under 50% inhibition at 10 µM
Sequence of Mu-type opioid receptor (P35372 whole entry): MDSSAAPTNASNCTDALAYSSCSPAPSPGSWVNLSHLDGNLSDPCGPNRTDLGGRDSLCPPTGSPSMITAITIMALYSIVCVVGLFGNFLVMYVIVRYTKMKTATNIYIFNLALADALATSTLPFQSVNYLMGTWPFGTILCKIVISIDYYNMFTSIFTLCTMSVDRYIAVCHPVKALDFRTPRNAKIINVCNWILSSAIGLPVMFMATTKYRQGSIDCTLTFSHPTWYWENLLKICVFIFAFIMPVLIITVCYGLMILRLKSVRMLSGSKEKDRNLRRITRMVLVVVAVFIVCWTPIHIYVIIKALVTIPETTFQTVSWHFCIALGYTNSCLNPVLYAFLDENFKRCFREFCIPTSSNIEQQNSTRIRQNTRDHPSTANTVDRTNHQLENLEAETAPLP

Row | Compound | IC50 [1] | Ki [1] | IC50 ([2]; cho-k1) | Ki ([2]; cho-k1) | IC50 [3] | Ki [3] | IC50 ([4]; insect cells) | Ki ([4]; insect cells) | IC50 [5] | Ki [5] | IC50 [6] | Ki [6] | IC50 [7] | Ki [7] | IC50 ([8]; cho-k1) | Ki [8] [µM] | IC50 ([8]; read-out: IC50) [µM] | IC50 ([2]; read-out: IC50) [µM] | Ki ([2]; read-out: Ki) [µM] | IC50 ([4]; read-out: IC50) [µM]
1 | STANNOUS FLUORIDE | Not Active | Not Active | Not Active | Not Active | Not Active | Not Active | Not Active | Not Active | Not Active | Not Active | Not Active | Not Active | Not Active | Not Active |  |  |  |  |  | 
2 | C[C@@H](O)[C@H]1C(=O)N2C(C(=O)O)=C(S[C@@H]3CN[C@H](C(=O)N(C)C)C3)[C@H](C)[C@H]12 [MEROPENEM] | Not Active | Not Active | Not Active |  | Not Active | Not Active | Not Active |  | Not Active |  | Not Active |  | Not Active | Not Active | Not Active |  |  |  |  | 
3 | COc1ncnc(NS(=O)(=O)c2ccc(N)cc2)c1OC [SULFADOXINE] | Not Active | Not Active | Not Active |  | Not Active | Not Active | Not Active |  | Not Active |  | Not Active |  | Not Active | Not Active | Not Active |  |  |  |  | 
4 | CCCc1nn(C)c2c(=O)[nH]c(-c3cc(S(=O)(=O)N4CCN(C)CC4)ccc3OCC)nc12 | Not Active | Not Active | Not Active |  | Not Active | Not Active | Not Active |  | Not Active |  | Not Active |  | Not Active | Not Active | Not Active |  |  |  |  | 
5 | CN1C2CCCC1CC(NC(=O)c1nn(C)c3ccccc13)C2 (stereo unspecified) [GRANISETRON] | Not Active | Not Active | Not Active |  |  |  | Not Active |  | Not Active |  | Not Active |  |  |  | Not Active |  |  |  |  | 
6 | Cc1cn([C@H]2C[C@H](N=[N+]=[N-])[C@@H](CO)O2)c(=O)[nH]c1=O [ZIDOVUDINE] | Not Active | Not Active | Not Active |  | Not Active | Not Active |  |  | Not Active |  | Not Active |  | Not Active | Not Active | Not Active |  |  |  |  | 
7 | OCCN1CCN(CCCN2c3ccccc3Sc3ccc(C(F)(F)F)cc32)CC1 [FLUPHENAZINE] |  |  |  |  |  |  |  |  | Not Active |  |  |  |  |  |  | 8.42 | 20.7 | 5.88 | 2.06 | 40.1
8 | O=c1n(CCCN2CCN(c3cccc(Cl)c3)CC2)nc2ccccn12 [TRAZODONE] | Not Active | Not Active | Not Active |  |  |  | Not Active |  | Not Active |  | Not Active |  |  |  | Not Active |  |  |  |  | 
9 | CCS(=O)(=O)CCn1c([N+](=O)[O-])cnc1C [TINIDAZOLE] |  |  | Not Active |  | Not Active | Not Active | Not Active |  | Not Active |  | Not Active |  | Not Active | Not Active | Not Active |  |  |  |  | 
10 | O=C(O)C(Cl)(Cl)Cl [TRICHLOROACETIC ACID] | Not Active | Not Active | Not Active |  | Not Active | Not Active | Not Active |  | Not Active |  | Not Active |  | Not Active | Not Active |  |  |  |  |  | 
